{"source": "patent US20190307821A1", "about": "“METHODS AND COMPOSITIONS FOR CANCER THERAPY” (priority 2016, published 2019)", "key": {"[1]": {"tested_on": "parental and drug-resistant ID8 cells", "assay_type": "cell-based, murine", "conditions": "72-h cell viability assay, ID8-R versus parental cells"}, "[2]": {"tested_on": "parental and drug-resistant CAOV2 cells", "assay_type": "cell-based, human", "conditions": "72-h cell viability assay, CAOV2-R versus parental"}, "[3]": {"tested_on": "ID8-R cells", "experiment": "Growth in the presence of DOX (trypan blue exclusion test)", "assay_type": "cell-based, murine", "conditions": "DOX 3 μM, after a one-week period", "experimental": "(§1) FIG. 9. Susceptibility of parental and resistant ID8 and CAOV2 tumor cells to PTX, CBDCA and DOX. (a) Characterization of side population (SP) in the parental (P) and drug-resistant (R) ID8 (left panel) and CAOV2 (right panel) tumor cells by Hoechst 33342 dye staining. One representative experiment of two independent experiments performed in duplicates is shown. Growth of the parental and drug-resistant tumor variants of ID8 (b) and CAOV2 (c) cells in the presence of PTX (59 nM) and CBDCA (2.6 μM) (left panel) or DOX (3 μM) (right panel) was determined by a trypan blue exclusion test for cell viability. Bars represent the mean±SD of two independent experiments using triplicate samples."}, "[4]": {"tested_on": "CAOV2-R cells", "experiment": "Growth in the presence of DOX (trypan blue exclusion test)", "assay_type": "cell-based, human", "conditions": "DOX 3 μM, after a one-week period", "experimental": "as §1"}, "[5]": {"tested_on": "OVV-EGFP in ID8-R tumor cells", "assay_type": "cell-based, vaccinia virus"}, "[6]": {"tested_on": "OVV-EGFP in CAOV2-R tumor cells", "assay_type": "cell-based, vaccinia virus"}, "[7]": {"tested_on": "ID8-R tumor cells", "assay_type": "cell-based, murine", "conditions": "24 h cultures, OVV MOI of 1 or DOX 1 μM alone"}}}
{"smiles": "COc1cccc2c1C(=O)c1c(O)c3c(c(O)c1C2=O)C[C@@](O)(C(=O)CO)C[C@@H]3O[C@H]1C[C@H](N)[C@H](O)[C@H](C)O1", "note": "[DOX, doxorubicin]", "values": [{"measurement": "IC50 values higher compared to the parental cells", "setting": "[1]", "value": "approximately 10 fold"}, {"measurement": "differences in the IC50 values between the resistant and parental cells", "setting": "[2]", "value": 3, "unit": "fold"}, {"measurement": "dead cells", "setting": "[3]", "value": "over 90%"}, {"measurement": "dead cells", "setting": "[4]", "value": "over 90%"}, {"measurement": "decrease in viral titers", "setting": "[5]", "value": 10, "unit": "fold"}, {"measurement": "decrease in viral titers", "setting": "[6]", "value": 3, "unit": "fold"}, {"measurement": "cells with apoptosis or necrosis", "setting": "[7]", "value": "~20", "unit": "%"}]}
